PubChem BioAssay AID1963874 (Molecular Pharmacology Branch, DTP, NCI, 2024)

Test system: 253994-281-T-J1-PDC KRAS-mutant spheroids with HUVEC/MSC, viability
Experiment: Anticancer human tumor 253994-281-T-J1-PDC patient-derived colorectal carcinoma cell line growth inhibition [KRAS2]
Conditions: for IC50: curve of first compound; for viability, T/C: stronger effect = lower value; active = viability on the fitted dose curve at most 10% of control; inactive = the rest
Procedure, shortened: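 KRAS-mutant tumor cells were grown as spheroids with HUVEC endothelial cells and human MSCs as stroma. Targeted agents were tested alone and with KRAS pathway inhibitors. Doses started at or near clinical Cmax, or 10 microM, descending half-log.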

[1] = second compound 0.1 µM, first compound 0.0316 µM
[2] = second compound 0.1 µM, first compound 0.1 µM
[3] = second compound 0.316 µM, first compound 0.0316 µM
[4] = second compound 0.316 µM, first compound 0.1 µM
[5] = second compound 1 µM, first compound 0.0316 µM
[6] = second compound 1 µM, first compound 0.1 µM
[7] = second compound 3.16 µM, first compound 0.0316 µM
[8] = second compound 3.16 µM, first compound 0.1 µM
[9] = second compound 10 µM, first compound 0.0316 µM
[10] = second compound 10 µM, first compound 0.1 µM
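Also: spheroids exposed to agents for seven days before readout.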
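For viability, T/C in this document: percent of DMSO vehicle control viability.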

CC(C)n1nc(-c2ccc3oc(N)nc3c2)c2c(N)ncnc21 + CNCc1ccccc1-c1csc(C(C)Nc2nc(C)nc3cc(OC)c(OC)cc23)c1
active: viability, T/C (second compound 10 µM, first compound 0.000316 µM) 0.12% | viability, T/C (second compound 10 µM, first compound 0.001 µM) 0.13% | viability, T/C (second compound 10 µM, first compound 0.00316 µM) 0.13% | viability, T/C (second compound 10 µM, first compound 0.01 µM) 0.11% | viability, T/C [9] 0.13% | viability, T/C [10] 0.18%
< 0.316 nM: IC50 (second compound 10 µM)
0.316 nM: IC50 (second compound 3.16 µM)
inactive: viability, T/C (second compound 0.1 µM, first compound 0.000316 µM) 96.7% | viability, T/C (second compound 0.1 µM, first compound 0.001 µM) 86.8% | viability, T/C (second compound 0.1 µM, first compound 0.00316 µM) 74.5% | viability, T/C (second compound 0.1 µM, first compound 0.01 µM) 75.8% | viability, T/C [1] 79.7% | viability, T/C [2] 50.8% | viability, T/C (second compound 0.316 µM, first compound 0.000316 µM) 91% | viability, T/C (second compound 0.316 µM, first compound 0.001 µM) 87.5% | viability, T/C (second compound 0.316 µM, first compound 0.00316 µM) 82.7% | viability, T/C (second compound 0.316 µM, first compound 0.01 µM) 73.2% | viability, T/C [3] 78.1% | viability, T/C [4] 57% | viability, T/C (second compound 1 µM, first compound 0.000316 µM) 93.3% | viability, T/C (second compound 1 µM, first compound 0.001 µM) 78% | viability, T/C (second compound 1 µM, first compound 0.00316 µM) 79.3% | viability, T/C (second compound 1 µM, first compound 0.01 µM) 76.8% | viability, T/C [5] 73.3% | viability, T/C [6] 51% | viability, T/C (second compound 3.16 µM, first compound 0.000316 µM) 37.9% | viability, T/C (second compound 3.16 µM, first compound 0.001 µM) 45.2% | viability, T/C (second compound 3.16 µM, first compound 0.00316 µM) 56.9% | viability, T/C (second compound 3.16 µM, first compound 0.01 µM) 9.64% | viability, T/C [7] 42.3% | viability, T/C [8] 28.2%
> 100 nM: IC50 (second compound 0.1 µM) | IC50 (second compound 0.316 µM) | IC50 (second compound 1 µM)

CC1(C)CCC(CN2CCN(c3ccc(C(=O)NS(=O)(=O)c4ccc(NCC5CCOCC5)c([N+](=O)[O-])c4)c(Oc4cnc5[nH]ccc5c4)c3)CC2)=C(c2ccc(Cl)cc2)C1 + CNCc1ccccc1-c1csc(C(C)Nc2nc(C)nc3cc(OC)c(OC)cc23)c1
< 31.6 nM: IC50 (second compound 3.16 µM) | IC50 (second compound 10 µM)
4570 nM: IC50 (second compound 1 µM)
> 10000 nM: IC50 (second compound 0.1 µM)
6410 nM: IC50 (second compound 0.316 µM)
inactive: viability, T/C [1] 99.5% | viability, T/C [2] 105% | viability, T/C (second compound 0.1 µM, first compound 0.316 µM) 101% | viability, T/C (second compound 0.1 µM, first compound 1 µM) 99.5% | viability, T/C (second compound 0.1 µM, first compound 3.16 µM) 82.6% | viability, T/C (second compound 0.1 µM, first compound 10 µM) 69.9% | viability, T/C [3] 86% | viability, T/C [4] 94.3% | viability, T/C (second compound 0.316 µM, first compound 0.316 µM) 86.2% | viability, T/C (second compound 0.316 µM, first compound 1 µM) 80.9% | viability, T/C (second compound 0.316 µM, first compound 3.16 µM) 81.4% | viability, T/C (second compound 0.316 µM, first compound 10 µM) 30.8% | viability, T/C [5] 82.7% | viability, T/C [6] 83.7% | viability, T/C (second compound 1 µM, first compound 0.316 µM) 84.2% | viability, T/C (second compound 1 µM, first compound 1 µM) 78.1% | viability, T/C (second compound 1 µM, first compound 3.16 µM) 64.6% | viability, T/C (second compound 1 µM, first compound 10 µM) 19.4% | viability, T/C [7] 33.9% | viability, T/C [8] 29.8% | viability, T/C (second compound 3.16 µM, first compound 0.316 µM) 38.1% | viability, T/C (second compound 3.16 µM, first compound 1 µM) 32.9% | viability, T/C (second compound 3.16 µM, first compound 3.16 µM) 13.1%
active: viability, T/C (second compound 3.16 µM, first compound 10 µM) 6.34% | viability, T/C [9] 0.15% | viability, T/C [10] 0.15% | viability, T/C (second compound 10 µM, first compound 0.316 µM) 0.13% | viability, T/C (second compound 10 µM, first compound 1 µM) 0.11% | viability, T/C (second compound 10 µM, first compound 3.16 µM) 0.11% | viability, T/C (second compound 10 µM, first compound 10 µM) 0.17%
